The subject of assay [1] is corn. In words: Test Example 1: foliage treatment, upland pot test. The assay is classed as in vivo, Zea mays L. The conditions noted are these: crop, active ingredient 500 g/ha, observed 18th to 23rd day, 0 = non-treated, 100 = complete kill. In short, it runs like this: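 Corn seeds were sown in upland field soil held in a 1/170,000 ha pot and grown to the 2.1 to 3.2 leaf stage. A wettable powder or emulsifiable concentrate of the test compound was diluted with water at 500 L/ha, given 0.1% (v/v) agricultural spreader, and sprayed onto the foliage with a small sprayer. Growth controlling degree (%) was scored visually 18th to 23rd days later, from 0 (non-treated) to 100 (complete kill).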

Assay [2] has as its system soybean. Kind of assay: Test Example 2: soil surface treatment, upland pot test. The assay is classed as in vivo, Glycine max Merr. The following applies: active ingredient 1000 g/ha, observed 20th to 28th day. An outline of the steps:
(§1)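 In this pre-emergence upland pot test, a small sprayer delivered the diluted compound formulation (1,500 L/ha water) to the soil surface the day after seeding. Plants were then observed, and control was scored from 0 to 100% some 20–28 days after treatment.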

Assay [3] has as its system rice. In words: Test Example 1: foliage treatment, upland pot test. The assay is classed as in vivo, Oryza sativa L. The following applies: crop, active ingredient 500 g/ha, observed 18th to 23rd day, 0 = non-treated, 100 = complete kill. In short, it runs like this: (§2)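 Applied as a post-emergence foliar spray: formulated compound diluted to 500 L/ha with spreader at 0.1% (v/v). Treatment timing—rice at 1.2–2.6, wheat at 1.3–2.4, barnyardgrass at 1.3–2.8, soybean at 0.1–0.4 leaf stage. Scored visually on a 0–100% control scale after 18–23 days.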

The test system of assay [4] is redroot pigweed. Kind of assay: Test Example 2: soil surface treatment, upland pot test. The assay is classed as in vivo, Amaranthus retroflexus L. The following applies: active ingredient 1000 g/ha, observed 20th to 28th day. In short, it runs like this: as §1
Another assay has as its system wheat. Described as above. The assay is classed as in vivo, Triticum spp. The conditions noted are these: active ingredient 1000 g/ha, observed 20th to 28th day. In short, it runs like this: as §1
The subject of assay [5] is barnyardgrass. Kind of assay: Test Example 3: paddy pot test, application under submerged conditions. The assay is classed as in vivo, Echinochloa crus-galli L. The following applies: active ingredient 500 g/ha; submerged application at 0.5 leaf stage; visually observed 14 days after application; 0 = non-treated, 100 = complete kill. An outline of the steps:
(§3)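 Seeds were sown in flooded paddy soil (0.5–1 cm water), wapato tubers were planted 1–2 days later, and water was then held at 3–4 cm. Diluted wettable powder or emulsifiable concentrate was pipetted into the water at the 0.5 leaf or primary leaf stage. Growth control was visually scored at 14 days (0–100%).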

Assay [6] has as its system soybean. In words: Test Example 1: foliage treatment, upland pot test. The assay is classed as in vivo, Glycine max Merr. The conditions noted are these: crop, active ingredient 500 g/ha, observed 18th to 23rd day, 0 = non-treated, 100 = complete kill. An outline of the steps:
as §2

Assay [7] deals with green foxtail. Kind of assay: Test Example 1: foliage treatment, upland pot test. The assay is classed as in vivo, Setaria viridis L. The following applies: active ingredient 500 g/ha, observed 18th to 23rd day, 0 = non-treated, 100 = complete kill.
The test system of another assay is japanese bulrush. In words: Test Example 3: paddy pot test, application under submerged conditions. The assay is classed as in vivo, Scirpus juncoides. The conditions noted are these: active ingredient 500 g/ha; submerged application at 0.5 leaf stage; visually observed 14 days after application; 0 = non-treated, 100 = complete kill. An outline of the steps:
as §3

Another assay has as its system rice (var. Nihonbare). In words: Test Example 3: paddy pot test, transplanted rice. The following applies: active ingredient 500 g/ha, applied 4th day after transplantation, visually observed 21st day after application, 0 = non-treated, 100 = complete kill. The assay is classed as in vivo, Oryza sativa L. In short, it runs like this:
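Rice (2-leaf stage) was transplanted 3 cm deep into puddled, leveled paddy soil under 3–4 cm flooding. On day 4 after transplanting, diluted wettable powder or emulsifiable concentrate was pipetted onto the water at a predetermined active-ingredient dose. Growth control (0 = untreated, 100 = complete kill) was scored visually 21 days later.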

For assay [8], the system named is prickly sida. In words: Test Example 1: foliage treatment, upland pot test. The assay is classed as in vivo, Sida spinosa L. The conditions noted are these: active ingredient 500 g/ha, observed 18th to 23rd day, 0 = non-treated, 100 = complete kill.
Assay [9] has as its system crabgrass. Kind of assay: Test Example 2: soil surface treatment, upland pot test. The assay is classed as in vivo, Digitaria sanguinalis L. The following applies: active ingredient 1000 g/ha, observed 20th to 28th day. In short, it runs like this: as §1
Assay [10] deals with green foxtail. Described as above. The assay is classed as in vivo, Setaria viridis L. The conditions noted are these: active ingredient 1000 g/ha, observed 20th to 28th day. An outline of the steps:
as §1

The subject of assay [11] is redroot pigweed. Kind of assay: Test Example 1: foliage treatment, upland pot test. The assay is classed as in vivo, Amaranthus retroflexus L. The following applies: active ingredient 500 g/ha, observed 18th to 23rd day, 0 = non-treated, 100 = complete kill.
The test system of assay [12] is prickly sida. Kind of assay: Test Example 2: soil surface treatment, upland pot test. The assay is classed as in vivo, Sida spinosa L. The conditions noted are these: active ingredient 1000 g/ha, observed 20th to 28th day. An outline of the steps:
as §1

The subject of assay [13] is velvetleaf. In words: Test Example 1: foliage treatment, upland pot test. The assay is classed as in vivo, Abutilon theophrasti MEDIC. The following applies: active ingredient 500 g/ha, observed 18th to 23rd day, 0 = non-treated, 100 = complete kill.
The test system of assay [14] is rice. Kind of assay: Test Example 2: soil surface treatment, upland pot test. The assay is classed as in vivo, Oryza sativa L. The following applies: active ingredient 1000 g/ha, observed 20th to 28th day. In short, it runs like this: as §1
The subject of a further assay is japanese ribbon wapato. Kind of assay: Test Example 3: paddy pot test, application under submerged conditions. The assay is classed as in vivo, Sagittaria pygniaea. The conditions noted are these: active ingredient 500 g/ha; submerged application at primary leaf stage; visually observed 14 days after application; 0 = non-treated, 100 = complete kill. In short, it runs like this: as §3

Assay [15] deals with barnyardgrass. In words: Test Example 1: foliage treatment, upland pot test. The assay is classed as in vivo, Echinochloa crus-galli L. The conditions noted are these: active ingredient 500 g/ha, observed 18th to 23rd day, 0 = non-treated, 100 = complete kill. An outline of the steps:
as §2

In assay [16] the test system is crabgrass. In words: Test Example 1: foliage treatment, upland pot test. The assay is classed as in vivo, Digitaria sanguinalis L. The following applies: active ingredient 500 g/ha, observed 18th to 23rd day, 0 = non-treated, 100 = complete kill.
The subject of another assay is tall morningglory. Kind of assay: Test Example 1: foliage treatment, upland pot test. The assay is classed as in vivo, Ipomoea purpurea L. The conditions noted are these: active ingredient 500 g/ha, observed 18th to 23rd day, 0 = non-treated, 100 = complete kill. From the text: Upland field soil was put into a 1/170,000 ha pot, and seed of various plants were sown. Then, when the plants reached predetermined leaf stages ((1) barnyardgrass: 1.3 to 2.8 leaf stages, (2) crabgrass: 1.0 to 2.8 leaf stages, (3) green foxtail: 1.3 to 2.6 leaf stages, (4) redroot pigweed: 0.1 to 1.2 leaf stages, (5) prickly sida: 0.1 to 1.2 leaf stages, (6) velvetleaf: 0.1 to 1.2 leaf stages, (7) tall morningglory: 0.1 to 1.5 leaf stages, (8) rice: 1.2 to 2.6 leaf stages, (9) wheat: 1.3 to 2.4 leaf stages, (10) corn, 2.1 to 3.2 leaf stages, (11) soybean: 0.1 to 0.4 leaf stage), a wettable powder or emulsifiable concentrate having the compound of the present invention formulated in accordance with a usual formulation method, was weighed so that the active ingredient would be a predetermined amount, and diluted with water in an amount of 500 L/ha. To the diluted solution, 0.1% (v/v) of agricultural spreader was added. The herbicide thus adjusted was applied by a small size sprayer for foliage treatment. On the 18th to 23rd days after the application of the herbicide, the growth of the respective plants was visually observed, and the herbicidal effects were evaluated by the growth controlling degrees (%) ranging from 0 (equivalent to the non-treated plot) to 100 (complete kill), whereby the results shown in Table 3, were obtained.

For assay [17], the system named is corn. In words: Test Example 2: soil surface treatment, upland pot test. The conditions noted are these: active ingredient 1000 g/ha, observed 20th to 28th day. The assay is classed as in vivo, Zea mays L. In short, it runs like this: as §1
Assay [18] concerns velvetleaf. The description is as above. The assay is classed as in vivo, Abutilon theophrasti MEDIC. The following applies: active ingredient 1000 g/ha, observed 20th to 28th day. In short, it runs like this:
as §1

For assay [19], the system named is barnyardgrass. Described as above. The assay is classed as in vivo, Echinochloa crus-galli L. The conditions noted are these: active ingredient 1000 g/ha, observed 20th to 28th day, 0 = non-treated, 100 = complete kill. In short, it runs like this: as §1

Consider `CC(C(=O)N(C)C(c1cnccc1C(F)(F)F)C(C)C)c1ccccc1` (stereo not drawn) [I-12], for which the entries for the “Growth controlling degree (%) Corn” value in the assay with corn [1] and in the assay with corn [17] were 10% and 0%, respectively. Besides, the “Growth controlling degree (%) Soyabean” value in the assay with soybean [2] came out at 20%. Besides, the “Growth controlling degree (%) Rice” value in the assay on rice [3] came out at 0%; with rice (var. Nihonbare) it was 30%; with rice [14] it was 10%. In addition, the results for the “Growth controlling degree (%) Redroot pigweed” value in the assay with redroot pigweed [4] and in the assay with redroot pigweed [11] were 90% and 50%, respectively. Also, in the assay on wheat, the “Growth controlling degree (%) wheat” value amounted to 40%. Moreover, the “Growth controlling degree (%) Barnyardgrass” value was 100% in the assay on barnyardgrass [5], 50% in the assay with barnyardgrass [15] and 100% in the assay with barnyardgrass [19]. The “Growth controlling degree (%) Soybean” value in the assay with soybean [6] was 30%. In addition, the “Growth controlling degree (%) Green foxtail” value in the assay with green foxtail [7] was 60%; with green foxtail [10], 100%. Further, in the assay on japanese bulrush, the “Growth controlling degree (%) Japanese bulrush” value is listed as 100%. Further, the “Growth controlling degree (%) Prickly sida” value was found to be 60% with prickly sida [8] and 90% with prickly sida [12]. In addition, the “Growth controlling degree (%) Crabgrass” value with crabgrass [9] was 100%; in the assay on crabgrass [16], 95%. Moreover, the “Growth controlling degree (%) Velvetleaf” value with velvetleaf [13] and in the assay with velvetleaf [18] was 80% throughout. In the assay with japanese ribbon wapato, the “Growth controlling degree (%) Japanese ribbon wapato” value is 70%. Also, in the assay with tall morningglory, the “Growth controlling degree (%) Tall morningglory” value amounted to 70%.
As for `CC(C)C(c1cnccc1C(F)(F)F)N(C)C(=O)Cc1c(F)cccc1F` (stereo not drawn) [I-13], the figures for the “Growth controlling degree (%) Corn” value in the assay on corn [1] and with corn [17] were 70% and 40%, respectively. Also, the “Growth controlling degree (%) Soyabean” value in the assay on soybean [2] worked out at 20%. Besides, the results for the “Growth controlling degree (%) Rice” value in the assay on rice [3], in the assay on rice (var. Nihonbare) and in the assay with rice [14] were 20%, 30% and 30%, respectively. The entries for the “Growth controlling degree (%) Redroot pigweed” value with redroot pigweed [4] and in the assay on redroot pigweed [11] were 90% and 80%, respectively. For the same compound, the “Growth controlling degree (%) wheat” value in the assay on wheat is given as 98%. The “Growth controlling degree (%) Barnyardgrass” value with barnyardgrass [5] stood at 100%; in the assay with barnyardgrass [15], 80%; with barnyardgrass [19] it was 100%. Besides, the “Growth controlling degree (%) Soybean” value in the assay on soybean [6] amounted to 90%. In addition, the “Growth controlling degree (%) Green foxtail” value in the assay with green foxtail [7] is on record as 80%; with green foxtail [10], 100%. In addition, the “Growth controlling degree (%) Japanese bulrush” value with japanese bulrush is 95%. The “Growth controlling degree (%) Prickly sida” value is 70% with prickly sida [8] and 90% in the assay on prickly sida [12]. The “Growth controlling degree (%) Crabgrass” value with crabgrass [9] was 100%; in the assay with crabgrass [16] it was 80%. For the same compound, the “Growth controlling degree (%) Velvetleaf” value with velvetleaf [13] was 80%; with velvetleaf [18] it was 100%. Also, the “Growth controlling degree (%) Japanese ribbon wapato” value in the assay on japanese ribbon wapato is listed as 90%. In addition, the “Growth controlling degree (%) Tall morningglory” value with tall morningglory came out at 95%.

For the origin of these results see patent US20050239656A1, “Pyridine compounds or salts thereof and herbicides containing the same” (priority 2002, published 2005).
